Counter-ions that a name gives are not always drawn.
Target: human LOXL2 (Homo sapiens (Human), UniProt Q9Y4K0)
Test: Human LOXL2 Amine Oxidase Activity Assay (Amplex Red fluorescence)
Assay type: biochemical
Details: concentrated conditioned media from CHO cells stably expressing human LOXL2; 2 h at 37° C. preincubation; DAP substrate; read-out: IC50
Method: LOXL2 amine oxidase activity is evaluated by measuring Amplex Red fluorescence using 10-20× concentrated conditioned media from CHO cells stably expressing human LOXL2. To assay for amine oxidase activity, 10 μL of the concentrated conditioned media is incubated with 2 μL of test compound in DMSO and 73 μL Assay Buffer (50 mM Borate Buffer, pH8) for 2 h at 37° C. After the 2 h incubation, 5 μl of 10 mM 1,5-Diaminopentane (DAP) diluted in Assay Buffer and 10 μl of Amplex Red Mix (8.5 μl Assay Buffer+0.5 μl of 10 mM Amplex Red+1 μl of 500 U/ml Horseradish Peroxidase) are added and the plate mixed and immediately placed on the FlexStaion for fluorescence measurements. Fluorescence is read in kinetic mode every 2 min for 1 hour at excitation=544 and emission=590. The amine oxidase activity is calculated from the slope of the linear portion of the curve.

Chain of human LOXL2 (Q9Y4K0 26-774): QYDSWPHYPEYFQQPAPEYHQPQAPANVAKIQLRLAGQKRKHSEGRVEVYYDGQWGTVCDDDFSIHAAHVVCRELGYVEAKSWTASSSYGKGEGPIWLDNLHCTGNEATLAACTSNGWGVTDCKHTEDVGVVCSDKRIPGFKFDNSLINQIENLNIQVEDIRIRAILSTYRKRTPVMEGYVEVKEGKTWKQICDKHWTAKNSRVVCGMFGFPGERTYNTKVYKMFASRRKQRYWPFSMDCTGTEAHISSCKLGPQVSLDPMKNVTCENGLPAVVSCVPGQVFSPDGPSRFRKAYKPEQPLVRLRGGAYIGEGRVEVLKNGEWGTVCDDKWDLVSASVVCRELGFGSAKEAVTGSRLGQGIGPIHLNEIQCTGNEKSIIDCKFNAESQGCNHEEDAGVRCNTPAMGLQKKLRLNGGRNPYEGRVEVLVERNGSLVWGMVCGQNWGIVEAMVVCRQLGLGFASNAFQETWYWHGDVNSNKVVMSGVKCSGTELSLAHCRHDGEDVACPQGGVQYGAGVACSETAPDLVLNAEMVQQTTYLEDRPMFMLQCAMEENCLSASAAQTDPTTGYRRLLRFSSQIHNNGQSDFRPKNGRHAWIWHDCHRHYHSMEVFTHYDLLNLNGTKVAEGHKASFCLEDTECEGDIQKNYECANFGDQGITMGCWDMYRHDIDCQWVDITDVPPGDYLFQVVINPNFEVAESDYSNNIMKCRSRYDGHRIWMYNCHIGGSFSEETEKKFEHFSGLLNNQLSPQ

Row | SMILES | IC50
1 | NCc1ccnc(-c2ccc(C(=O)N3CCC(O)(C(F)(F)F)C3)cc2)c1 (racemic) [Compound 1-2, Racemic-(4-(4-(aminomethyl)pyridin-2-yl)phenyl)(3-hydroxy-3-(trifluoromethyl)pyrrolidin-1-yl)methanone hydrochloride] | < 300 nM
2 | NCc1ccnc(-c2cccc(C(=O)N3CCC(O)(C(F)(F)F)C3)c2)c1 (racemic) [Compound 1-6, Racemic-(3-(4-(aminomethyl)pyridin-2-yl)phenyl)(3-hydroxy-3-(trifluoromethyl)pyrrolidin-1-yl)methanone hydrochloride] | < 300 nM
3 | NCc1ccnc(Oc2ccc(C(=O)N3CCC(O)(C(F)(F)F)C3)cc2)c1 (racemic) [Compound 1-12, Racemic-4-((4-aminomethyl)pyridin-2-yl)oxy)phenyl)(3-hydroxy-3-(trifluoromethyl)pyrrolidin-1-yl)methanone hydrochloride] | < 300 nM
4 | NCc1ccnc(Oc2cccc(C(=O)N3CCC(O)(C(F)(F)F)C3)c2)c1 (racemic) [Compound 1-16, Racemic-(3-((4-(aminomethyl)pyridin-2-yl)oxy)phenyl)(3-hydroxy-3-(trifluoromethyl)pyrrolidin-1-yl)methanone hydrochloride] | < 300 nM
5 | NCc1ccnc(N2C[C@@H](O)[C@H](F)C2)c1 (racemic) [Compound 2-1] | > 1000 nM
6 | NCc1ccnc(N2CCC(O)(C(F)(F)F)C2)c1 (racemic) [Compound 2-2, Racemic-1-(4-(Aminomethyl)pyridin-2-yl)-3-(trifluoromethyl)pyrrolidin-3-ol] | > 1000 nM
7 | NCc1ccnc(C(=O)N2CCC(O)(C(F)(F)F)C2)c1 (racemic) [Compound 2-40, Racemic-(4-(aminomethyl)pyridin-2-yl)(3-hydroxy-3-(trifluoromethyl)pyrrolidin-1-yl)methanone hydrochloride] | < 300 nM
8 | NCc1ccnc(Oc2cccc3c2ccn3CC(=O)N2CCCC(O)(C(F)(F)F)C2)c1 (single isomer, unassigned) [Compound 2-28, (R) or (S)-2-(4-((4-(Aminomethyl)pyridin-2-yl)oxy)-1H-indol-1-yl)-1-(3-hydroxy-3-(trifluoromethyl)piperidin-1-yl)ethan-1-one hydrochloride] | < 300 nM
9 | NCc1ccnc(Oc2cccc3c2ccn3CC(=O)N2CCCC(O)(C(F)(F)F)C2)c1 (single isomer, unassigned) [Compound 2-29, (R) or (S)-2-(4-((4-(aminomethyl)pyridin-2-yl)oxy)-1H-indol-1-yl)-1-(3-hydroxy-3-(trifluoromethyl)piperidin-1-yl)ethan-1-one hydrochloride] | 300 to 1000 nM
10 | COCCNC(=O)c1ccc(-c2cc(CN)ccn2)cc1 [Compound 1-1, 4-(4-(Aminomethyl)pyridin-2-yl)-N-(2-methoxyethyl)benzamide hydrochloride] | < 300 nM
11 | NCc1ccnc(-c2ccc(C(=O)Nc3ccccc3)cc2)c1 [Compound 1-3, 4-(4-(Aminomethyl)pyridin-2-yl)-N-phenylbenzamide hydrochloride] | < 300 nM
12 | NCc1ccnc(-c2ccc(C(=O)NCc3ccccc3)cc2)c1 [Compound 1-4, 4-(4-(Aminomethyl)pyridin-2-yl)-N-benzylbenzamide hydrochloride] | < 300 nM
13 | COCCNC(=O)c1cccc(-c2cc(CN)ccn2)c1 [Compound 1-5, 3-(4-(Aminomethyl)pyridin-2-yl)-N-(2-methoxyethyl)benzamide hydrochloride] | < 300 nM
14 | NCc1ccnc(-c2cccc(C(=O)Nc3ccccc3)c2)c1 [Compound 1-7, 3-(4-(Aminomethyl)pyridin-2-yl)-N-phenylbenzamide hydrochloride] | < 300 nM
15 | NCc1ccnc(-c2cccc(C(=O)NCc3ccccc3)c2)c1 [Compound 1-8, 3-(4-(Aminomethyl)pyridin-2-yl)-N-benzylbenzamide hydrochloride] | < 300 nM
16 | Cc1ccc(Cl)cc1NC(=O)c1cccc(-c2cc(CN)ccn2)c1 [Compound 1-9, 3-(4-(Aminomethyl)pyridin-2-yl)-N-(5-chloro-2-methylphenyl)benzamide hydrochloride] | < 300 nM
17 | NCc1ccnc(-c2cccc(C(=O)Nc3cc(Cl)cc4[nH]ccc34)c2)c1 [Compound 1-10, 3-(4-(Aminomethyl)pyridin-2-yl)-N-(6-chloro-1H-indol-4-yl)benzamide hydrochloride] | < 300 nM
18 | COCCNC(=O)c1ccc(Oc2cc(CN)ccn2)cc1 [Compound 1-11, 4-((4-(Aminomethyl)pyridin-2-yl)oxy)-N-(2-methoxyethyl)benzamide hydrochloride] | 300 to 1000 nM
19 | NCc1ccnc(Oc2ccc(C(=O)Nc3ccccc3)cc2)c1 [Compound 1-13, 4-((4-(Aminomethyl)pyridin-2-yl)oxy)-N-phenylbenzamide hydrochloride] | < 300 nM
20 | NCc1ccnc(Oc2ccc(C(=O)NCc3ccccc3)cc2)c1 [Compound 1-14, 4-((4-(Aminomethyl)pyridin-2-yl)oxy)-N-benzylbenzamide hydrochloride] | < 300 nM

Row | SMILES | IC50
21 | COCCNC(=O)c1cccc(Oc2cc(CN)ccn2)c1 [Compound 1-15, 3-((4-(Aminomethyl)pyridin-2-yl)oxy)-N-(2-methoxyethyl)benzamide hydrochloride] | < 300 nM
22 | NCc1ccnc(Oc2cccc(C(=O)Nc3ccccc3)c2)c1 [Compound 1-17, 3-((4-(Aminomethyl)pyridin-2-yl)oxy)-N-phenylbenzamide hydrochloride] | < 300 nM
23 | NCc1ccnc(Oc2cccc(C(=O)NCc3ccccc3)c2)c1 [Compound 1-18, 3-((4-Aminomethyl)pyridin-2-yl)oxy)-N-benzylbenzamide hydrochloride] | < 300 nM
24 | COc1cccc(NC(=O)c2cccc(Oc3cc(CN)ccn3)c2)c1 [Compound 1-19, 3-((4-(Aminomethyl)pyridin-2-yl)oxy)-N-(3-methoxyphenyl)benzamide hydrochloride] | < 300 nM
25 | COc1ccc(NC(=O)c2cccc(Oc3cc(CN)ccn3)c2)cc1 [Compound 1-20, 3-((4-Aminomethyl)pyridin-2-yl)oxy)-N-(4-methoxyphenyl)benzamide hydrochloride] | < 300 nM
26 | NCc1ccnc(Oc2cccc(C(=O)Nc3cccc(C(F)(F)F)c3)c2)c1 [Compound 1-21, 3-((4-Aminomethyl)pyridin-2-yl)oxy)-N-(3-(trifluoromethyl)phenyl)benzamide hydrochloride] | < 300 nM
27 | NCc1ccnc(Oc2cccc(C(=O)Nc3ccc(C(F)(F)F)cc3)c2)c1 [Compound 1-22, 3-((4-(Aminomethyl)pyridin-2-yl)oxy)-N-(4-(trifluoromethyl)phenyl)benzamide hydrochloride] | < 300 nM
28 | NCc1ccnc(Oc2cccc(C(=O)Nc3ccc(F)cc3)c2)c1 [Compound 1-23, 3-((4-Aminomethyl)pyridin-2-yl)oxy)-N-(4-fluorophenyl)benzamide hydrochloride] | < 300 nM
29 | NCc1ccnc(Oc2cccc(C(=O)Nc3ccc(F)cc3F)c2)c1 [Compound 1-24, 3-((4-Aminomethyl)pyridin-2-yl)oxy)-N-(2,4-difluorophenyl)benzamide hydrochloride] | < 300 nM
30 | NCc1ccnc(Oc2cccc(C(=O)Nc3ccc(Br)cc3)c2)c1 [Compound 1-25, 3-((4-(Aminomethyl)pyridin-2-yl)oxy)-N-(4-bromophenyl)benzamide hydrochloride] | < 300 nM
31 | COC(=O)c1ccc(NC(=O)c2cccc(Oc3cc(CN)ccn3)c2)cc1 [Compound 1-26, Methyl 4-(3-((4-(amindimethyl)pyridin-2-yl)oxy)benzamido)benzoate hydrochloride] | < 300 nM
32 | CCOC(=O)c1cccc(NC(=O)c2cccc(Oc3cc(CN)ccn3)c2)c1 [Compound 1-27, Ethyl 3-(3-((4-(aminomethyl)pyridin-2-yl)oxy)benzamido)benzoate hydrochloride] | < 300 nM
33 | NCc1ccnc(Oc2cccc(C(=O)Nc3cccc(C(=O)O)c3)c2)c1 [Compound 1-28, 3-(3-((4-(Aminomethyl)pyridin-2-yl)oxy)benzamido)benzoic acid hydrochloride] | < 300 nM
34 | NCc1ccnc(Oc2cccc(C(=O)Nc3ccc(C(=O)O)cc3)c2)c1 [Compound 1-29, 4-(3-((4-(Aminomethyl)pyridin-2-yl)oxy)benzamido)benzoic acid hydrochloride] | < 300 nM
35 | NCc1ccnc(Oc2cccc(C(=O)NCc3ccc(F)cc3F)c2)c1 [Compound 1-30, 3-((4-(Aminomethyl)pyridin-2-yl)oxy)-N-(2,4-difluorobenzyl)benzamide hydrochloride] | < 300 nM
36 | NCc1ccnc(Oc2cccc(C(=O)NCc3ccc(C(F)(F)F)cc3)c2)c1 [Compound 1-31, 3-((4-(Aminomethyl)pyridin-2-yl)oxy)-N-(4-(trifluoromethyl)benzyl)benzamide hydrochloride] | < 300 nM
37 | NCc1ccnc(Oc2cccc(C(=O)NCc3ccc(Br)cc3)c2)c1 [Compound 1-32, 3-((4-(Aminomethyl)pyridin-2-yl)oxy)-yl)-(4-bromobenzyl)benzamide hydrochloride] | < 300 nM
38 | COC(=O)c1ccc(CNC(=O)c2cccc(Oc3cc(CN)ccn3)c2)cc1 [Compound 1-33, Methyl 4-((3-((4-(aminomethyl)pyridin-2-yl)oxy)benzamido)methyl)benzoate hydrochloride] | < 300 nM
39 | NCc1ccnc(Oc2cccc(C(=O)NCc3ccc(C(=O)O)cc3)c2)c1 [Compound 1-34, 4-((3-((4-Aminomethyl)pyridin-2-yl)oxy)benzamido)methyl)benzoic acid hydrochloride] | < 300 nM
